Results on 6 compounds are retold here after patent US8999957B2, “Heterocyclic compounds as ERK inhibitors” (Merck Sharp & Dohme Corp., priority 2010, dated 2015).

Assay [1] deals with fully phosphorylated, active Mouse ERK2 protein (Mus musculus (Mouse), UniProt P63085). Nature of the assay: Active ERK2 (aERK) IMAP assay, condition 1. The class given is biochemical. The following applies: aERK assay condition 1, 30 μM ATP. The protocol: Active ERK2 (aERK) Assay: (Unless Indicated Otherwise, the Data Provided for aERK was obtained using Condition 1)
Chain of fully phosphorylated, active Mouse ERK2 protein (P63085 whole entry): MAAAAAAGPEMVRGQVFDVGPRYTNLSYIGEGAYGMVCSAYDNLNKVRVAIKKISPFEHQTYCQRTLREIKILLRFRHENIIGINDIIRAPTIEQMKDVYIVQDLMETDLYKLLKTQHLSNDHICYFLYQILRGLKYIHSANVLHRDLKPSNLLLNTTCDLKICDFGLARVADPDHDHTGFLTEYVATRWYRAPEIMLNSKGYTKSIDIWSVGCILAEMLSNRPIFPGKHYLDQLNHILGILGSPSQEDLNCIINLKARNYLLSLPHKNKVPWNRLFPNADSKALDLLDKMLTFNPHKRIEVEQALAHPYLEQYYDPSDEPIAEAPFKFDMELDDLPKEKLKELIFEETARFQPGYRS
Activated ERK2 activity was also determined in the IMAP assay format using the procedure outlined above. […] Reactions proceeded for 30 minutes before termination by addition of 60 μl IMAP detection beads in binding buffer. Plates were read as above after 30 minute binding equilibration.

In a further assay the target is ERK protein (Mus musculus, UniProt P63085). Nature of the assay: TdF (Temperature Dependence Fluorescence, thermal shift) assay for ERK. Format: binding. The following applies: 3 μM ERK protein, uncertainty estimated ±50%, read-out: Kd TdF. The text has this:
Assays: TdF Assay for ERK […] The TdF assay was mainly conducted in the 96-well based CHROMO-4 real time fluorescence plate reader (BioRad). The Sypro Orange (Sigma-Aldrich), environmentally sensitive fluorescence dye, was used to monitor the protein folding-unfolding transition. Protein-ligand binding was gauged by the change (or shift) in the unfolding transition temperature (ΔTm) acquired at protein alone with respect to protein in the presence of ligand of interest. Compound of interest was first prepared in DMSO stock (typical concentration: 10 mM). […] Final percentage of DMSO resided in the sample was 2%. The sample plate was heated from 30° C. to 90° C. with thermal ramping rate of 1° C./min. […] The instrument thermal stability was ±0.2° C. The melting temperatures (Tm) for ERK protein under aforementioned conditions occurred at 61.0±0.2° C. and 64.8±02° C. respectively. Theoretical Basis for TdF-Based Ligand Binding Affinity Constant […] In brief, the binding constant of the ligand at the Tm is expressed as below: [formula] where T0 is the midpoint of unfolding for unliganded protein and Tm is the midpoint of unfolding in presence of ligand. [LTm] is free ligand at Tm. The ΔHu and ΔCpu are the enthalpy of unfolding and heat capacity change of unfolding for the protein respectively. Following algorithm derived by Winsor and coworker, the T0, ΔHu and ΔCpu can be determined separately from nonlinear regression fitting the protein alone melting curve: Where F(T) is the observed fluorescence intensity at any temperature T, Yn and Yu are the predicted fluorescence intensities for fully folded and unfolded protein, respectively; mn and mu are slope correction for changes in Yn and Yu with respect to changes in temperature (analogously replace T0 with Tm in the above equation for liganded protein to yield Tm). […] [formula] where ΔHL (T) is the van't Hoff enthalpy of ligand binding at temperature T and ΔCpL is the heat capacity upon ligand binding. For simplicity, the ΔCpL and ΔHL (T) were set to zero and −7 kcal/mol respectively.

The target in assay [2] is inactive ERK2 (unphosphorylated Mouse ERK2 protein) (Mus musculus (Mouse), UniProt P63085). Nature of the assay: Coupled ERK2 (cERK) assay, coupled MEK1/ERK2 IMAP assay. The following applies: 30 μM ATP. The class given is biochemical. The protocol: 14 μl of kinase buffer (10 mM Tris.HCl pH 7.2, 10 mM MgCl2, 0.01% Tween-20, 1 mM DTT) containing 0.4 ng unphosphorylated Mouse ERK2 protein was added to each well of a black 384-well assay plate. […] DMSO concentration during initial incubation is 6.7%. ERK2 activity was determined to be insensitive to DMSO concentrations up to 20%. ERK2 was then activated and it's kinase activity measured by the addition of 10 μl kinase buffer with the following components (final concentration per reaction): 2 ng active (phosphorylated) human MEK1 protein and 4 μM (total) ERK2 IMAP substrate peptides (3.9 μM unlabeled […]-CONH2 and 100 nM […](5-carboxyfluorescein)-CONH2) and 30 μM ATP. DMSO concentration during ERK activation was 4%. After one hour, reactions were terminated by addition of 60 μl IMAP detections beads in binding buffer (Molecular Devices). Binding was allowed to equilibrate for 30 minutes before reading the plate on an LJL Analyst Fluorescence Polarization plate reader. […] Active compounds were reconfirmed in an independent assay.
Chain of inactive ERK2 (unphosphorylated Mouse ERK2 protein) (P63085 whole entry): as above

Chain of ERK protein (P63085 2-358 limits assumed): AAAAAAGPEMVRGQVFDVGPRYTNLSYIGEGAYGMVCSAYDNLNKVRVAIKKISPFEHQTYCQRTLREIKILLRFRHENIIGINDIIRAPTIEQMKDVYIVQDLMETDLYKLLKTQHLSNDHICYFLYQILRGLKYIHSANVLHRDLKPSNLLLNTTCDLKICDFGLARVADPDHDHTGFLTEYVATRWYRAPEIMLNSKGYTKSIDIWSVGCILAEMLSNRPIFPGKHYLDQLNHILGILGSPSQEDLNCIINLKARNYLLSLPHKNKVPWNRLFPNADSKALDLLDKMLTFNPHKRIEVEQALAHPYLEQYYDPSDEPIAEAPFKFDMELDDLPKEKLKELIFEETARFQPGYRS

Usually IC50 stands for the point on the concentration scale where inhibition reaches its midpoint. Low readings indicate greater potency in that assay, high ones weaker potency in that assay. What is called Kd is the concentration at which binding is half-saturated. With `CC(C)Oc1ccc(-c2n[nH]c3ccc(C(=O)N[C@@H]4CCCN(Cc5ccccc5F)C4)cc23)cc1`, the IC50 in assay [1] worked out at 275 nM; in assay [2] it was 443 nM. Moreover, the Kd at ERK protein was 1.2 nM.

For the compound `O=C(N[C@@H]1CCCN(Cc2ccccc2F)C1)c1ccc2[nH]nc(-c3ccnc(Cl)c3)c2c1`, the IC50 in assay [1] worked out at 26.1 nM; in assay [2], 25 nM. The Kd on ERK protein was 0.58 nM.

Take `O=C(N[C@H]1CCCN(Cc2ccccc2)C1)c1ccc2[nH]nc(-c3ccncc3)c2c1`: the IC50 turned out to be 485 nM in assay [1] and 304 nM in assay [2]. Also, the Kd at ERK protein was 118 nM.

`O=C(N[C@@H]1CCCN(Cc2ccccc2F)C1)c1ccc2[nH]nc(-c3ccncc3)c2c1`: the IC50 worked out at 5.5 nM in assay [1] and 1.1 nM in assay [2]. Also, at ERK protein, the Kd was 0.6 nM.

For `CC(C)Oc1ccc(-c2n[nH]c3ccc(C(=O)NC4CCCN(Cc5ccccc5F)C4)cc23)cn1` (stereo not drawn), the results for the IC50 in assay [1] and in assay [2] were 769 nM and 307 nM, respectively. Further, the Kd on ERK protein was 2.9 nM.

As for `O=C(NC1CCCN(Cc2ccccc2F)C1)c1ccc2[nH]nc(-c3ccc4c(c3)CCO4)c2c1` (stereo not drawn), the IC50 in assay [1] is 284 nM; in assay [2], 231 nM. The Kd at ERK protein is 2.6 nM.
